The values that follow come from publication doi:10.1101/767673v1 (bioRxiv, 2019).

Where a SMILES comes first, the peptide text is derived from it. Bridges are numbered along the chain shown (N, C = ends). [ ]: non-standard residue; d: D form. dPhe(4-CF3) = N[C@H](Cc1ccc(C(F)(F)F)cc1)C(=O)O; dTrp(6-F) = N[C@H](Cc1c[nH]c2cc(F)ccc12)C(=O)O; S8 = C=CCCCCCC[C@](C)(N)C(=O)O; R5 = C=CCCC[C@@](C)(N)C(=O)O

The target of test [1] is human Mdm2 protein (amino acids 1–125) (Homo sapiens, UniProt Q00987). The experiment in a line: Isothermal titration calorimetry. Format: binding. The conditions noted are these: PBS pH 7.2, 3% DMSO, 0.001% Tween-20, duplicates. A general note: ITC needs no label: the signal is the heat of the interaction.
In another test the target is T1, Mdm4 (Homo sapiens, UniProt O15151).
T1 sequence (O15151 1-490): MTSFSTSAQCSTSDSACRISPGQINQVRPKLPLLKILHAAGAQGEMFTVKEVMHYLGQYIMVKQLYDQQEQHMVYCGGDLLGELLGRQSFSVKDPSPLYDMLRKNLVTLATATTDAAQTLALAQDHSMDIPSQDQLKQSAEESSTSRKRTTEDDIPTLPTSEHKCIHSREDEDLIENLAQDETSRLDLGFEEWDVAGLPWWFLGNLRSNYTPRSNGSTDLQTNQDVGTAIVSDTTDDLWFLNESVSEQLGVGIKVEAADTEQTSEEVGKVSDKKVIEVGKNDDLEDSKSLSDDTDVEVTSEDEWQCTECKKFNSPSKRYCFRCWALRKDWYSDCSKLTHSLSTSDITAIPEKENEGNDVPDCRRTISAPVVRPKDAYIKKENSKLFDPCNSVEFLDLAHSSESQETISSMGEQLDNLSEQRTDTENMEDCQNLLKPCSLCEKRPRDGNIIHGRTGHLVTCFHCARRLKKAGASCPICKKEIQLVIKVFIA
The experiment in a line: Competitive fluorescence anisotropy / FP binding assay, Mdm4. As to conditions: FP competition assay.

The next test deals with Mdm2 (1-125) (Homo sapiens, UniProt Q00987). The experiment in a line: Competitive fluorescence anisotropy / FP binding assay, Mdm2. As to conditions: FP competition assay. A general note: Polarisation of emitted light reports the rotation of a fluorescent probe.

Regarding `CC(C)C[C@@H](NC(=O)[C@@H](CC(C)C)NC(=O)[C@@H](CCCCN)NC(=O)[C@@H](CCC(=O)O)NC(=O)[C@@H](Cc1ccc(C(F)(F)F)cc1)NC(=O)[C@@H](CC(N)=O)NC(=O)[C@@]1(C)CCCC=CCCC[C@@](C)(N)C(=O)N[C@H](C)C(=O)N[C@H](Cc2c[nH]c3cc(F)ccc23)C(=O)N[C@H](Cc2ccc(O)cc2)C(=O)N1)C(=O)N[C@H](CCCNC(=N)N)C(N)=O` [^dPMI-δ(1-5)], the “ITC enthalpy of binding (ΔH) to Mdm2” value in test [1] was -15.8 kcal/mol.

Consider `CC(C)C[C@@H](NC(=O)[C@@H](CC(C)C)NC(=O)[C@@]1(C)CCCC=CCCCCCC[C@](C)(NC(=O)[C@H](N)[C@H](C)O)C(=O)N[C@H](Cc2c[nH]c3cc(F)ccc23)C(=O)N[C@H](Cc2ccc(O)cc2)C(=O)N[C@H](C)C(=O)N[C@H](CC(N)=O)C(=O)N[C@H](Cc2ccc(C(F)(F)F)cc2)C(=O)N[C@H](CCC(=O)O)C(=O)N1)C(=O)N[C@H](CCCNC(=N)N)C(N)=O` [^dPMI-δ(2-9)] (H-[dT][S8][dTrp(6-F)][dY][dA][dN][dPhe(4-CF3)][dE][R5][dL][dL][dR]-NH2; staple 2-9; N-terminus and C-terminus assumed), for which the “Binding to Mdm4 in the FP assay” value at Mdm4 is “displayed no binding”. Moreover, the “Binding to Mdm2 in the FP assay” value at Mdm2 (1-125) is given as “no binding”.
